System: 266295-075-R-J1-PDC spheroid viability
Test: Anticancer human tumor 266295-075-R-J1-PDC patient-derived head and neck squamous carcinoma cell line growth inhibition [POLQ]
Settings: spheroids with HUVEC and MSC; for IC50: curve of first compound; for viability, T/C: stronger effect = lower value
Experimental: Multicellular complex tumor spheroid response to Polymerase (POL) inhibitors (novobiocin, ART-558, RP6685) in combination with a variety of drugs and investigational agents in selected tumor cell lines
The POL inhibitors (novobiocin, ART-558, and RP6685) were evaluated both individually and in combination with standard of care and investigational anticancer small molecules within a complex spheroid model of solid tumors. . Complex spheroids include a stromal component modeled by human endothelial cells (HUVEC) and fibroblasts modeled by human mesenchymal stem cells (MSCs). The concentration ranges selected for each drug and investigational agent were based upon clinically achievable concentrations if the clinical Cmax of the agent was known.
Compounds. The drugs and investigational agents: novobiocin (NSC847541), ART-558 (NSC835418), RP-6685 (NSC848927), peposertib (NSC802822), ceralasertib (NSC780249), elimusertib (NSC800525), camonsertib (NSC841442), AZD-1390 (NSC803789), olaparib (NSC753686), talazoparib (NSC767125), rucaparib (NSC756644), sotorasib (NSC818433), MRTX-1133 (NSC836407), SN-38 (NSC673596), topotecan (NSC609699), epotoside (NSC141540), doxorubicin (NSC123127), gemcitabine (NSC613327), 5-fluorouracil (NSC19893), paclitaxel (NSC125973), vemurafenib (NSC761431), MSA-2 (NSC828583), SN-011 (NSC837082), adavosertib (NSC754352), prexasertib (NSC758257), carboplatin (NSC241240) and oxaliplatin (NSC266046), were obtained from the National Cancer Institute (NCI) Developmental Therapeutics Program Chemical Repository (21). The FDA-approved anticancer drug set is available from the Developmental Therapeutics Program at https://dtp.cancer.gov/organization/dscb/obtaining/. […] The stock solutions were prepared in dimethyl sulfoxide (DMSO, Sigma-Aldrich, St. Louis, MO, cat. D2650), except for the platinum compounds which were prepared in saline (Quality Biological, Gaithersburg, MD, cat. 114-055-101), at 800-fold the tested concentration and stored at -70 degrees C prior to their use. All drugs and investigational agents were tested over a range starting from a high concentration at or near the clinical Cmax and decreasing in half-log increments. If the clinical Cmax for an agent had not been determined, the highest concentration tested was 10 microM, except for SN-38, which was tested at a high concentration of 1 microM.
Cell Culture. All cells were maintained in an incubator at 37 degrees C and 5% CO2 with 95% humidity. The PDC lines were cultured according to standard operating procedures established by the NCI PDMR (https://pdmr.cancer.gov). Table 3 of the manuscript, lists the cell lines along with the number of the three cell types plated to form the mct-spheroids and media for tumor cell growth. After thawing, all PDC lines, except 997537-175-T-J1-PDC and 415267-285-R-J2-PDC, were cultured in Matrigel-coated flasks prepared with a working solution of 1X Ham's F-12 nutrient mix, without supplementation (Thermo Fisher Scientific, cat. 11765054), 100 U/mL penicillin-streptomycin (Thermo Fisher Scientific, cat. 15140122), and 2.5% Matrigel (Corning Inc., Corning, NY, cat. 354248) for the first three passages. The two PDC lines 997537-175-T-J1-PDC and 415267-285-R-J2-PDC were cultured on uncoated flasks. The 857933-349-R-J2-PDC line was cultured in 6C/Colon 1B media containing advanced DMEM/F-12 (Thermo Fisher Scientific, cat. 12634028), 10 mM HEPES (Thermo Fisher Scientific, cat. 15630080), 1X GlutaMAX supplement (Thermo Fisher Scientific, cat. 35050061), 0.1 mg/mL primocin (InvivoGen, San Diego, CA, cat. ant-pm-2), 10% defined fetal bovine serum, heat inactivated (HyClone Laboratories Inc., Logan, UT, cat. SH30070.03HI), 50% L-WRN conditioned media (ATCC, cat. CRL-3276), 1.25 mM N-Acetyl-L-cysteine (Sigma-Aldrich, cat. A9165), 10 mM nicotinamide (Sigma-Aldrich, cat. N0636), 1X B-27 supplement (Thermo Fisher Scientific, cat. 17504044), 1X N-2 supplement (Thermo Fisher Scientific, cat. […]

[1] = second compound 0.0316 µM, first compound 0.0316 µM
[2] = second compound 0.0316 µM, first compound 0.1 µM
[3] = second compound 0.0316 µM, first compound 0.316 µM
[4] = second compound 0.0316 µM, first compound 1 µM
[5] = second compound 0.0316 µM, first compound 3.16 µM
[6] = second compound 0.0316 µM, first compound 10 µM
[7] = second compound 0.1 µM, first compound 0.0316 µM
[8] = second compound 0.1 µM, first compound 0.1 µM
[9] = second compound 0.1 µM, first compound 0.316 µM
[10] = second compound 0.1 µM, first compound 1 µM
[11] = second compound 0.1 µM, first compound 3.16 µM
[12] = second compound 0.1 µM, first compound 10 µM
[13] = second compound 0.316 µM, first compound 0.0316 µM
[14] = second compound 0.316 µM, first compound 0.1 µM
[15] = second compound 0.316 µM, first compound 0.316 µM
[16] = second compound 0.316 µM, first compound 1 µM
[17] = second compound 0.316 µM, first compound 3.16 µM
[18] = second compound 0.316 µM, first compound 10 µM
[19] = second compound 1 µM, first compound 0.0316 µM
[20] = second compound 1 µM, first compound 0.1 µM
[21] = second compound 1 µM, first compound 0.316 µM
[22] = second compound 1 µM, first compound 1 µM
[23] = second compound 1 µM, first compound 3.16 µM
[24] = second compound 1 µM, first compound 10 µM
[25] = second compound 3.16 µM, first compound 0.0316 µM
[26] = second compound 3.16 µM, first compound 0.1 µM
[27] = second compound 3.16 µM, first compound 0.316 µM
[28] = second compound 3.16 µM, first compound 1 µM
[29] = second compound 3.16 µM, first compound 3.16 µM
[30] = second compound 3.16 µM, first compound 10 µM
[31] = second compound 10 µM, first compound 0.0316 µM
[32] = second compound 10 µM, first compound 0.1 µM
[33] = second compound 10 µM, first compound 0.316 µM
[34] = second compound 10 µM, first compound 1 µM
[35] = second compound 10 µM, first compound 3.16 µM
[36] = second compound 10 µM, first compound 10 µM
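Note: spheroids exposed to compounds for seven days before readout.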

In the case of `CCCS(=O)(=O)Nc1ccc(F)c(C(=O)c2c[nH]c3ncc(-c4ccc(Cl)cc4)cc23)c1F` + COC1C(OC(N)=O)C(O)C(Oc2ccc3c(O)c(NC(=O)c4ccc(O)c(CC=C(C)C)c4)c(=O)oc3c2C)OC1(C)C, the IC50 (second compound 0.0316 µM) is reported as greater than 10 µM, the IC50 (second compound 0.1 µM) is reported as greater than 10 µM and the IC50 (second compound 0.316 µM) is reported as greater than 10 µM. It also gave an IC50 (second compound 1 µM) greater than 10 µM, an IC50 (second compound 3.16 µM) greater than 10 µM and an IC50 (second compound 10 µM) greater than 10 µM. It also gave a viability, T/C [1] of 99%, a viability, T/C [2] of 116% and a viability, T/C [3] of 107%. For the same molecule, the viability, T/C [4] was 115%, the viability, T/C [5] was 169% and the viability, T/C [6] was 172%. For the same molecule, the viability, T/C [7] was 101%, the viability, T/C [8] was 121% and the viability, T/C [9] was 105%. The viability, T/C [10] was 112%, the viability, T/C [11] was 157% and the viability, T/C [12] was 222%. For the same molecule, the viability, T/C [13] was 116%, the viability, T/C [14] was 102% and the viability, T/C [15] was 102%. For the same molecule, the viability, T/C [16] was 128%, the viability, T/C [17] was 155% and the viability, T/C [18] was 195%. For the same molecule, the viability, T/C [19] was 117%, the viability, T/C [20] was 102% and the viability, T/C [21] was 102%. The viability, T/C [22] was 113%, the viability, T/C [23] was 143% and the viability, T/C [24] was 172%. It also gave a viability, T/C [25] of 98.7%, a viability, T/C [26] of 87.5% and a viability, T/C [27] of 140%. For the same molecule, the viability, T/C [28] was 130%, the viability, T/C [29] was 139% and the viability, T/C [30] was 178%. It also gave a viability, T/C [31] of 112%, a viability, T/C [32] of 95.5% and a viability, T/C [33] of 111%. It also gave a viability, T/C [34] of 153%, a viability, T/C [35] of 144% and a viability, T/C [36] of 166%.
With `O=C(c1cc(Cc2n[nH]c(=O)c3ccccc23)ccc1F)N1CCN(C(=O)C2CC2)CC1` + COC1C(OC(N)=O)C(O)C(Oc2ccc3c(O)c(NC(=O)c4ccc(O)c(CC=C(C)C)c4)c(=O)oc3c2C)OC1(C)C the IC50 (second compound 0.0316 µM) was greater than 10 µM, the IC50 (second compound 0.1 µM) was greater than 10 µM and the IC50 (second compound 0.316 µM) was greater than 10 µM. It also gave an IC50 (second compound 1 µM) greater than 10 µM, an IC50 (second compound 3.16 µM) greater than 10 µM and an IC50 (second compound 10 µM) greater than 10 µM. It also gave a viability, T/C [1] of 84.6%, a viability, T/C [2] of 107% and a viability, T/C [3] of 84.8%. It also gave a viability, T/C [4] of 110%, a viability, T/C [5] of 87.7% and a viability, T/C [6] of 97.9%. It also gave a viability, T/C [7] of 89.2%, a viability, T/C [8] of 114% and a viability, T/C [9] of 89.9%. For the same molecule, the viability, T/C [10] was 93.7%, the viability, T/C [11] was 98.6% and the viability, T/C [12] was 84.6%. The viability, T/C [13] was 101%, the viability, T/C [14] was 99.8% and the viability, T/C [15] was 88.9%. It also gave a viability, T/C [16] of 99.8%, a viability, T/C [17] of 93.6% and a viability, T/C [18] of 80%. For the same molecule, the viability, T/C [19] was 98.1%, the viability, T/C [20] was 89.8% and the viability, T/C [21] was 88.1%. For the same molecule, the viability, T/C [22] was 82.3%, the viability, T/C [23] was 83.5% and the viability, T/C [24] was 90.9%. For the same molecule, the viability, T/C [25] was 96.6%, the viability, T/C [26] was 103% and the viability, T/C [27] was 104%. It also gave a viability, T/C [28] of 83.8%, a viability, T/C [29] of 100% and a viability, T/C [30] of 102%. For the same molecule, the viability, T/C [31] was 106%, the viability, T/C [32] was 89.7% and the viability, T/C [33] was 90.8%. The viability, T/C [34] was 89.4%, the viability, T/C [35] was 112% and the viability, T/C [36] was 81.4%.
In the case of `O=c1[nH]cc(F)c(=O)[nH]1` + COC1C(OC(N)=O)C(O)C(Oc2ccc3c(O)c(NC(=O)c4ccc(O)c(CC=C(C)C)c4)c(=O)oc3c2C)OC1(C)C, the IC50 (second compound 0.0316 µM) is reported as greater than 10 µM, the IC50 (second compound 0.1 µM) is reported as greater than 10 µM and the IC50 (second compound 0.316 µM) is reported as greater than 10 µM. It also gave an IC50 (second compound 1 µM) greater than 10 µM, an IC50 (second compound 3.16 µM) greater than 10 µM and an IC50 (second compound 10 µM) greater than 10 µM. For the same molecule, the viability, T/C [1] was 103%, the viability, T/C [2] was 86.2% and the viability, T/C [3] was 93.1%. The viability, T/C [4] was 107%, the viability, T/C [5] was 96.1% and the viability, T/C [6] was 100%. For the same molecule, the viability, T/C [7] was 106%, the viability, T/C [8] was 110% and the viability, T/C [9] was 86.8%. The viability, T/C [10] was 93.6%, the viability, T/C [11] was 89% and the viability, T/C [12] was 103%. The viability, T/C [13] was 103%, the viability, T/C [14] was 106% and the viability, T/C [15] was 97.3%. For the same molecule, the viability, T/C [16] was 97.3%, the viability, T/C [17] was 91.7% and the viability, T/C [18] was 89%. For the same molecule, the viability, T/C [19] was 94.2%, the viability, T/C [20] was 122% and the viability, T/C [21] was 93.2%. It also gave a viability, T/C [22] of 111%, a viability, T/C [23] of 90.6% and a viability, T/C [24] of 89.9%. It also gave a viability, T/C [25] of 112%, a viability, T/C [26] of 93.5% and a viability, T/C [27] of 108%. The viability, T/C [28] was 97.8%, the viability, T/C [29] was 105% and the viability, T/C [30] was 90.5%. For the same molecule, the viability, T/C [31] was 102%, the viability, T/C [32] was 103% and the viability, T/C [33] was 96.2%. The viability, T/C [34] was 103%, the viability, T/C [35] was 98.7% and the viability, T/C [36] was 78.9%.

— PubChem BioAssay AID1963853 (Molecular Pharmacology Branch, DTP, NCI, 2024)
